In patent US7750003B2, “Compounds-943” (AstraZeneca AB, priority 2006, dated 2010):
pIC50: −log10 of the molar value. Where two headings read alike, the source gives them in different places.

System: phosphorylation of Serine 473 in Akt in MDA-MB-468 human breast adenocarcinoma cells
Test: In vitro phospho-Ser473 Akt assay (Test (c))
Type: cell-based
Conditions: MDA-MB-468 cells, 2 hours incubation, read-out: Test (c): IC50 versus Serine 473 in Akt
How it was run: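 MDA-MB-468 cells (15000/well, adhered overnight) treated with compound for 2 h at 37 °C, 5% CO2. After formaldehyde fixation, permeabilisation and blocking, phospho-Akt Ser473 immunostained with Alexafluor488 secondary and quantified by laser-scanning imaging (Acumen Explorer); IC50 from fluorescence dose–response.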

| Compound | pIC50 (Homo sapiens, MDA-MB-468, 2 h) | pIC50 |
| --- | --- | --- |
| C[C@H]1COCCN1c1cc(C(C)(C)S(C)(=O)=O)nc(-c2ccc(NC(=O)N3CC(O)C3)cc2)n1 [Example 24bf, 3-hydroxy-N-[4-[4-[(3S)-3-methylmorpholin-4-yl]-6-(2-methylsulfonylpropan-2-yl)pyrimidin-2-yl]phenyl]azetidine-1-carboxamide] | 5.17 | – |
| C[C@H]1COCCN1c1cc(C(C)(C)S(=O)(=O)C2CC2)nc(-c2ccc(NC(=O)NC3CCC3)cc2)n1 [Example 57h, 3-cyclobutyl-1-[4-[4-(2-cyclopropylsulfonylpropan-2-yl)-6-[(3S)-3-methylmorpholin-4-yl]pyrimidin-2-yl]phenyl]urea] | 7.18 | – |
| C[C@H]1COCCN1c1cc(C(C)(C)S(C)(=O)=O)nc(-c2ccc(NC(=O)NCc3ccncc3)cc2)n1 [Example 24ar, 1-[4-[4-[(3S)-3-methylmorpholin-4-yl]-6-(2-methylsulfonylpropan-2-yl)pyrimidin-2-yl]phenyl]-3-(pyridin-4-ylmethyl)urea] | 7.31 | – |
| CC(=O)NCCS(=O)(=O)Cc1cc(N2CCOC[C@@H]2C)nc(-c2ccc(NC(=O)Nc3ccon3)cc2)n1 [Example 40, N-[2-[[6-[(3S)-3-methylmorpholin-4-yl]-2-[4-(1,2-oxazol-3-ylcarbamoylamino)phenyl]pyrimidin-4-yl]methylsulfonyl]ethyl]acetamide] | 7.00 | – |
| C[C@H]1COCCN1c1cc(CS(=O)(=O)C2CC2)nc(-c2ccc(NC(=O)Nc3cnn(C)c3)cc2)n1 [Example 57g, 1-[4-[4-(cyclopropylsulfonylmethyl)-6-[(3S)-3-methylmorpholin-4-yl]pyrimidin-2-yl]phenyl]-3-(1-methylpyrazol-4-yl)urea] | 7.02 | – |
| C[C@H]1COCCN1c1cc(C(C)(C)S(C)(=O)=O)nc(-c2ccc(NC(=O)NC(C)(C)CO)cc2)n1 [Example 24an, 3-(1-hydroxy-2-methyl-propan-2-yl)-1-[4-[4-[(3S)-3-methylmorpholin-4-yl]-6-(2-methylsulfonylpropan-2-yl)pyrimidin-2-yl]phenyl]urea] | 5.74 | – |
| C[C@H]1COCCN1c1cc(C(C)(C)O)nc(-c2ccc(NC(=O)Nc3ccon3)cc2)n1 [Example 41, 1-[4-[4-(2-Hydroxypropan-2-yl)-6-[(3S)-3-methylmorpholin-4-yl]pyrimidin-2-yl]phenyl]-3-(1,2-oxazol-3-yl)urea] | 7.33 | – |
| C[C@H]1COCCN1c1cc(C(C)(C)S(C)(=O)=O)nc(-c2ccc(NC(=O)N3CCCC(O)C3)cc2)n1 (stereo partly drawn) [Example 24bd, 3-hydroxy-N-[4-[4-[(3S)-3-methylmorpholin-4-yl]-6-(2-methylsulfonylpropan-2-yl)pyrimidin-2-yl]phenyl]piperidine-1-carboxamide] | 5.49 | – |
| C[C@H]1COCCN1c1cc(C(C)(C)S(C)(=O)=O)nc(-c2ccc(NC(=O)N3CCC(O)CC3)cc2)n1 [Example 24bc, 4-hydroxy-N-[4-[4-[(3S)-3-methylmorpholin-4-yl]-6-(2-methylsulfonylpropan-2-yl)pyrimidin-2-yl]phenyl]piperidine-1-carboxamide] | 6.16 | – |
| CCNC(=O)Nc1ncc(-c2nc(N3CCOC[C@@H]3C)cc(C(C)(C)S(C)(=O)=O)n2)cn1 [Example 24af, 1-ethyl-3-[5-[4-[(3S)-3-methylmorpholin-4-yl]-6-(2-methylsulfonylpropan-2-yl)pyrimidin-2-yl]pyrimidin-2-yl]urea] | 5.85 | – |
| C[C@H]1COCCN1c1cc(C(C)(C)S(C)(=O)=O)nc(-c2ccc(NC(=O)N3CCOCC3)cc2)n1 [Example 24bb, N-[4-[4-[(3S)-3-methylmorpholin-4-yl]-6-(2-methylsulfonylpropan-2-yl)pyrimidin-2-yl]phenyl]morpholine-4-carboxamide] | 5.11 | – |

Next, values leading:

| pIC50 (Homo sapiens, MDA-MB-468, 2 h) | pIC50 | Compound |
| --- | --- | --- |
| 6.12 | – | CCNC(=O)Nc1ccc(-c2nc(CS(=O)(=O)c3ccc(F)cc3)cc(N3CCOC[C@@H]3C)n2)cc1 [Example 61a, 1-ethyl-3-[4-[4-[(4-fluorophenyl)sulfonylmethyl]-6-[(3S)-3-methylmorpholin-4-yl]pyrimidin-2-yl]phenyl]urea] |
| 7.11 | – | C[C@H]1COCCN1c1cc(C(C)(C)S(=O)(=O)c2ccc(F)cc2)nc(-c2ccc(NC(=O)NC3CC3)cc2)n1 [Example 61q, 3-cyclopropyl-1-[4-[4-[2-(4-fluorophenyl)sulfonylpropan-2-yl]-6-[(3S)-3-methylmorpholin-4-yl]pyrimidin-2-yl]phenyl]urea] |
| 7.52 | – | CC(C)NC(=O)Nc1ccc(-c2nc(N3CCOC[C@@H]3C)cc(C(C)(C)S(=O)(=O)c3ccc(F)cc3)n2)cc1 [Example 61m, 1-[4-[4-[2-(4-fluorophenyl)sulfonylpropan-2-yl]-6-[(3S)-3-methylmorpholin-4-yl]pyrimidin-2-yl]phenyl]-3-propan-2-yl-urea] |
| – | 6.80 | 1-[4-[4-[(3S)-3-methylmorpholin- 4-yl]-6-(2-propan-2- yl]phenyl]-3-pyridin-2-yl-urea [Example 60u] |
| 6.30 | – | C[C@H]1COCCN1c1cc(C(=O)N2CCS(=O)(=O)CC2)nc(-c2ccc(NC(=O)NC3CC3)cc2)n1 [Example 63b, 3-cyclopropyl-1-[4-[4-(1,1-dioxo1,4-thiazinane-4-carbonyl)-6-[(3S)-3-methylmorpholin-4-yl]pyrimidin-2-yl]phenyl]urea] |
| 5.74 | – | CC(C)CNC(=O)Nc1ccc(-c2nc(CS(=O)(=O)C(C)C)cc(N3CCOC[C@@H]3C)n2)cc1 [Example 60b, 1-[4-[4-[(3S)-3-methylmorpholin-4-yl]-6-(propan-2-ylsulfonylmethyl)pyrimidin-2-yl]phenyl]-3-(2-methylpropyl)urea] |
| 6.59 | – | C[C@@H]1CN(C(=O)c2cc(N3CCOC[C@@H]3C)nc(-c3ccc(NC(=O)NC4CC4)cc3)n2)C[C@H](C)O1 [Example 63c, 3-cyclopropyl-1-[4-[4-[(2R,6S)-2,6-dimethylmorpholine-4-carbonyl]-6-[(3S)-3-methylmorpholin-4-yl]pyrimidin-2-yl]phenyl]urea] |
| 6.72 | – | CCNC(=O)Nc1ccc(-c2nc(N3CCOC[C@@H]3C)cc(C(C)(C)S(=O)(=O)C(C)C)n2)cc1 [Example 60j, 1-ethyl-3-[4-[4-[(3S)-3-methylmorpholin-4-yl]-6-(2-propan-2-ylsulfonylpropan-2-yl)pyrimidin-2-yl]phenyl]urea] |
| 6.82 | – | C[C@H]1COCCN1c1cc(C(C)(C)S(=O)(=O)C(C)(C)C)nc(-c2ccc(NC(=O)NC3CC3)cc2)n1 [Example 66c, 3-cyclopropyl-1-[4-[4-[(3S)-3-methylmorpholin-4-yl]-6-(2-tert-butylsulfonylpropan-2-yl)pyrimidin-2-yl]phenyl]urea] |
| 7.19 | – | CC(C)S(=O)(=O)C(C)(C)c1cc(N2CCOC[C@@H]2C)nc(-c2ccc(NC(=O)NC3CC3)cc2)n1 [Example 60l, 3-cyclopropyl-1-[4-[4-[(3S)-3-methylmorpholin-4-yl]-6-(2-propan-2-ylsulfonylpropan-2-yl)pyrimidin-2-yl]phenyl]urea] |
| 5.89 | – | CC(C)S(=O)(=O)Cc1cc(N2CCOC[C@@H]2C)nc(-c2ccc(NC(=O)Nc3ccccn3)cc2)n1 [Example 60e, 1-[4-[4-[(3S)-3-methylmorpholin-4-yl]-6-(propan-2-ylsulfonylmethyl)pyrimidin-2-yl]phenyl]-3-pyridin-2-yl-urea] |
| 6.74 | – | C[C@H]1COCCN1c1cc(CS(=O)(=O)c2ccc(F)cc2)nc(-c2ccc(NC(=O)NC(C)(C)CO)cc2)n1 [Example 61d, 1-[4-[4-[(4-fluorophenyl)sulfonylmethyl]-6-[(3S)-3-methylmorpholin-4-yl]pyrimidin-2-yl]phenyl]-3-(1-hydroxy-2-methyl-propan-2-yl)urea] |
| 7.42 | – | C[C@H]1COCCN1c1cc(C(C)(C)S(=O)(=O)c2ccc(F)cc2)nc(-c2ccc(NC(=O)NC3CCC3)cc2)n1 [Example 61n, 3-cyclobutyl-1-[4-[4-[2-(4-fluorophenyl)sulfonylpropan-2-yl]-6-[(3S)-3-methylmorpholin-4-yl]pyrimidin-2-yl]phenyl]urea] |
| 6.11 | – | CC(C)S(=O)(=O)Cc1cc(N2CCOC[C@@H]2C)nc(-c2ccc(NC(=O)NCCCO)cc2)n1 [Example 60c, 3-(3-hydroxypropyl)-1-[4-[4-[(3S)-3-methylmorpholin-4-yl]-6-(propan-2-ylsulfonylmethyl)pyrimidin-2-yl]phenyl]urea] |
| 6.06 | – | CC(C)NC(=O)Nc1ccc(-c2nc(CS(=O)(=O)C(C)C)cc(N3CCOC[C@@H]3C)n2)cc1 [Example 60f, 1-[4-[4-[(3S)-3-methylmorpholin-4-yl]-6-(propan-2-ylsulfonylmethyl)pyrimidin-2-yl]phenyl]-3-propan-2-yl-urea] |
| 7.04 | – | C[C@H]1COCCN1c1cc(C(=O)N2CCCNCC2)nc(-c2ccc(NC(=O)NC3CC3)cc2)n1 [Example 63a, 3-cyclopropyl-1-[4-[4-(1,4-diazepane-1-carbonyl)-6-[(3S)-3-methylmorpholin-4-yl]pyrimidin-2-yl]phenyl]urea] |
| 6.23 | – | CC(C)S(=O)(=O)Cc1cc(N2CCOC[C@@H]2C)nc(-c2ccc(NC(=O)Nc3ccc(C(F)(F)F)cc3)cc2)n1 [Example 60d, 1-[4-[4-[(3S)-3-methylmorpholin-4-yl]-6-(propan-2-ylsulfonylmethyl)pyrimidin-2-yl]phenyl]-3-[4-(trifluoromethyl)phenyl]urea] |
| 6.80 | – | CCCNC(=O)Nc1ccc(-c2nc(N3CCOC[C@@H]3C)cc(C(C)(C)S(=O)(=O)C(C)C)n2)cc1 [Example 60q, 3-[4-[4-[(3S)-3-methylmorpholin-4-yl]-6-(2-propan-2-ylsulfonylpropan-2-yl)pyrimidin-2-yl]phenyl]-1-propyl-urea] |
| 7.23 | – | CC(C)S(=O)(=O)C(C)(C)c1cc(N2CCOC[C@@H]2C)nc(-c2ccc(NC(=O)NC3CCC3)cc2)n1 [Example 60m, 3-cyclobutyl-1-[4-[4-[(3S)-3-methylmorpholin-4-yl]-6-(2-propan-2-ylsulfonylpropan-2-yl)pyrimidin-2-yl]phenyl]urea] |
